Reference: US10189803B2, “Synthesis of therapeutic and diagnostic drugs centered on regioselective and stereoselective ring opening of aziridinium ions” (ILLINOIS INSTITUTE OF TECHNOLOGY, priority 2008, dated 2019)

Key:
[1] = In vitro serum stability of radiolabeled C-NE3TA complexes in human serum (SE-HPLC); type: in vitro ADME; conditions: 37° C., up to 11 days
Description: C-NE3TA was radiolabeled with ^90Y, ^177Lu, ^203Pb, ^205/6Bi, or ^153Gd as previously described (Chong, H. S.; Milenic, D. E.; Garmestani, K.; Brady, E. D.; Arora, H.; Pfiester, C.; Brechbiel, M. W., Nucl. Med. Biol. 2006, 33, 459-67; Chong H S, Garmestani K, Bryant Jr., L H Milenic D E, Overstreet T, Birch N, Le N, Brady E D, Brechbiel M W. J. Med. Chem. 2006, 49, 2055-2062). In vitro serum stability of the radiolabeled complexes purified via ion-exchange chromatography was performed to determine if C-NE3TA labeled with the radioisotopes remained stable without transchelation or loss of their respective radionuclide in human serum. This was assessed by measuring the transfer of radionuclide from the complex to serum proteins over the course of 11 days.
In vitro stability of the radiolabeled metal complexes. The stability of the purified radiolabeled complexes was evaluated in human serum (Gemini Bioproducts, Woodland, Calif.) for up to 11 days. The serum stability of the radiolabeled complexes was assessed by measuring the transfer of the radionuclide from each complex to serum proteins using SE-HPLC methods. Radiolabeled complexes were diluted to an appropriate volume that allowed for preparation of multiple samples containing 5-10 μCi and were filter-sterilized using a Millex-GV 0.22 μm filter. This stock solution was then mixed with 1400 μL of sterile normal human serum. Aliquots (200 μL) were drawn and separated into individual tubes for subsequent analysis using aseptic technique. The samples were incubated at 37° C., and at designated intervals, subjected to analysis by SE-HPLC. Samples were loaded onto the HPLC and eluted with PBS, pH 7.4 isocratically at 1 mL/min. […] Radioactivity associated with a transfer to serum proteins generally appeared at ˜6 min.

[2] = In vivo biodistribution of radiolabeled complexes in normal athymic mice; conditions: for percent injected dose per gram, Blood / percent injected dose per gram, Femur / percent injected dose per gram, Heart / percent injected dose per gram, Kidney / percent injected dose per gram, Liver / percent injected dose per gram, Lung / percent injected dose per gram, Spleen / percent injected dose per gram, Liver (second Liver line of Table 7): non-tumor bearing mice, ± SD
Description: The in vivo stability of the radiolabeled complexes was evaluated by performing biodistribution studies in normal athymic mice. Selected organs and the blood were harvested at five time points, 0.5, 1, 4, 8, and 24 h post-injection and the radioactivity measured. […] C-NE3TA radiolabeled with ^153Gd was almost completely cleared from blood, liver, spleen, lung, heart, and femur in less than 4 hours, and radioactivity level in the kidney was 0.16%±0.11 ID/g at 24 hour post-injection (Table 9).
In vivo biodistribution studies oh the radiolabeled metal complexes. Female athymic mice were obtained from Charles River Laboratories (Wilmington, Mass.) at 4-6 weeks of age. The pH of the radiolabeled ligands was adjusted to pH ˜7.0 with 0.5 M sodium bicarbonate (pH 10.5) and diluted in phosphate-buffered saline. The radiolabeled ligands ([…] for ^86Y, ^205/6Bi, ^177Lu, and ^203Pb) were administered to the mice in 200 μL of solution via tail vein injection. The mice (5 per data point) were sacrificed by exsanguination at 0.5, 1, 4, 8, and 24 h. Blood and the major organs were harvested, wet-weighed and the radioactivity measured in a γ-scintillation counter (1480 Wizard, Perkin Elmer). The percent injected dose per gram (% ID/g) was determined for each tissue. The values presented are the mean and standard deviation for each tissue.

Structure (SMILES): O=C(O)CNC(Cc1ccc([N+](=O)[O-])cc1)CN1CCN(CC(=O)O)CCN(CC(=O)O)CC1.[177Lu] (stereo not drawn) [^177Lu-C-NE3TA]
- stability in human serum (in words) [1]: no measurable loss of radioactivity
- percent injected dose per gram, Blood ([2]; 0.50 hr): 0.93 ± 0.30 % ID/g
- percent injected dose per gram, Femur ([2]; 0.50 hr): 1.06 ± 1.35 % ID/g
- percent injected dose per gram, Heart ([2]; 0.50 hr): 0.37 ± 0.08 % ID/g
- percent injected dose per gram, Kidney ([2]; 0.50 hr): 2.78 ± 0.99 % ID/g
- percent injected dose per gram, Liver ([2]; 0.50 hr): 0.82 ± 0.27 % ID/g
- percent injected dose per gram, Lung ([2]; 0.50 hr): 0.87 ± 0.22 % ID/g
- percent injected dose per gram, Spleen ([2]; 0.50 hr): 0.33 ± 0.08 % ID/g
- percent injected dose per gram, Blood ([2]; 1.00 hr): 0.31 ± 0.04 % ID/g
- percent injected dose per gram, Femur ([2]; 1.00 hr): 0.39 ± 0.13 % ID/g
- percent injected dose per gram, Heart ([2]; 1.00 hr): 0.19 ± 0.09 % ID/g
- percent injected dose per gram, Kidney ([2]; 1.00 hr): 1.57 ± 0.52 % ID/g
- percent injected dose per gram, Liver ([2]; 1.00 hr): 0.69 ± 0.20 % ID/g
- percent injected dose per gram, Lung ([2]; 1.00 hr): 0.42 ± 0.16 % ID/g
- percent injected dose per gram, Spleen ([2]; 1.00 hr): 0.28 ± 0.20 % ID/g
- percent injected dose per gram, Blood ([2]; 4.00 hr): 0.12 ± 0.02 % ID/g
- percent injected dose per gram, Femur ([2]; 4.00 hr): 0.36 ± 0.11 % ID/g
- percent injected dose per gram, Heart ([2]; 4.00 hr): 0.08 ± 0.02 % ID/g
- percent injected dose per gram, Kidney ([2]; 4.00 hr): 1.34 ± 0.09 % ID/g
- percent injected dose per gram, Liver ([2]; 4.00 hr): 0.50 ± 0.02 % ID/g
- percent injected dose per gram, Lung ([2]; 4.00 hr): 0.17 ± 0.03 % ID/g
- percent injected dose per gram, Spleen ([2]; 4.00 hr): 0.19 ± 0.07 % ID/g
- percent injected dose per gram, Blood ([2]; 8.00 hr): 0.06 ± 0.01 % ID/g
- percent injected dose per gram, Femur ([2]; 8.00 hr): 0.28 ± 0.15 % ID/g
- percent injected dose per gram, Heart ([2]; 8.00 hr): 0.10 ± 0.11 % ID/g
- percent injected dose per gram, Kidney ([2]; 8.00 hr): 1.16 ± 0.19 % ID/g
- percent injected dose per gram, Liver ([2]; 8.00 hr): 0.36 ± 0.05 % ID/g
- percent injected dose per gram, Lung ([2]; 8.00 hr): 0.15 ± 0.03 % ID/g
- percent injected dose per gram, Spleen ([2]; 8.00 hr): 0.13 ± 0.02 % ID/g
- percent injected dose per gram, Blood ([2]; 24.00 hr): 0.01 ± 0.00 % ID/g
- percent injected dose per gram, Femur ([2]; 24.00 hr): 0.38 ± 0.10 % ID/g
- percent injected dose per gram, Heart ([2]; 24.00 hr): 0.02 ± 0.01 % ID/g
- percent injected dose per gram, Kidney ([2]; 24.00 hr): 0.84 ± 0.08 % ID/g
- percent injected dose per gram, Liver ([2]; 24.00 hr): 0.31 ± 0.04 % ID/g
- percent injected dose per gram, Lung ([2]; 24.00 hr): 0.07 ± 0.03 % ID/g
- percent injected dose per gram, Spleen ([2]; 24.00 hr): 0.12 ± 0.05 % ID/g

Structure (SMILES): O=C(O)CNC(Cc1ccc([N+](=O)[O-])cc1)CN1CCN(CC(=O)O)CCN(CC(=O)O)CC1.[90Y] (stereo not drawn) [^90Y-C-NE3TA]
- stability in human serum (in words) [1]: no measurable loss of radioactivity
- percent injected dose per gram, Blood ([2]; 0.50 hr): 1.86 ± 1.92 % ID/g
- percent injected dose per gram, Femur ([2]; 0.50 hr): 1.19 ± 0.48 % ID/g
- percent injected dose per gram, Heart ([2]; 0.50 hr): 0.79 ± 0.52 % ID/g
- percent injected dose per gram, Kidney ([2]; 0.50 hr): 2.58 ± 1.04 % ID/g
- percent injected dose per gram, Liver ([2]; 0.50 hr): 1.65 ± 0.59 % ID/g
- percent injected dose per gram, Liver (second Liver line of Table 7) ([2]; 0.50 hr): 0.48 ± 0.08 % ID/g
- percent injected dose per gram, Lung ([2]; 0.50 hr): 1.64 ± 0.99 % ID/g
- percent injected dose per gram, Spleen ([2]; 0.50 hr): 0.70 ± 0.15 % ID/g
- percent injected dose per gram, Blood ([2]; 1.00 hr): 0.76 ± 1.09 % ID/g
- percent injected dose per gram, Femur ([2]; 1.00 hr): 0.82 ± 0.26 % ID/g
- percent injected dose per gram, Heart ([2]; 1.00 hr): 0.38 ± 0.31 % ID/g
- percent injected dose per gram, Kidney ([2]; 1.00 hr): 2.00 ± 2.32 % ID/g
- percent injected dose per gram, Liver ([2]; 1.00 hr): 0.88 ± 0.59 % ID/g
- percent injected dose per gram, Liver (second Liver line of Table 7) ([2]; 1.00 hr): 0.32 ± 0.07 % ID/g
- percent injected dose per gram, Lung ([2]; 1.00 hr): 1.16 ± 0.65 % ID/g
- percent injected dose per gram, Spleen ([2]; 1.00 hr): 0.47 ± 0.26 % ID/g
- percent injected dose per gram, Blood ([2]; 4.00 hr): 0.05 ± 0.05 % ID/g
- percent injected dose per gram, Femur ([2]; 4.00 hr): 0.30 ± 0.04 % ID/g
- percent injected dose per gram, Heart ([2]; 4.00 hr): 0.06 ± 0.02 % ID/g
- percent injected dose per gram, Kidney ([2]; 4.00 hr): 0.74 ± 0.15 % ID/g
- percent injected dose per gram, Liver ([2]; 4.00 hr): 0.17 ± 0.05 % ID/g
- percent injected dose per gram, Liver (second Liver line of Table 7) ([2]; 4.00 hr): 0.29 ± 0.03 % ID/g
- percent injected dose per gram, Lung ([2]; 4.00 hr): 0.10 ± 0.04 % ID/g
- percent injected dose per gram, Spleen ([2]; 4.00 hr): 0.13 ± 0.08 % ID/g
- percent injected dose per gram, Blood ([2]; 8.00 hr): 0.02 ± 0.00 % ID/g
- percent injected dose per gram, Femur ([2]; 8.00 hr): 0.22 ± 0.06 % ID/g
- percent injected dose per gram, Heart ([2]; 8.00 hr): 0.05 ± 0.01 % ID/g
- percent injected dose per gram, Kidney ([2]; 8.00 hr): 0.49 ± 0.10 % ID/g
- percent injected dose per gram, Liver ([2]; 8.00 hr): 0.20 ± 0.16 % ID/g
- percent injected dose per gram, Liver (second Liver line of Table 7) ([2]; 8.00 hr): 0.22 ± 0.03 % ID/g
- percent injected dose per gram, Lung ([2]; 8.00 hr): 0.16 ± 0.22 % ID/g
- percent injected dose per gram, Spleen ([2]; 8.00 hr): 0.07 ± 0.02 % ID/g
- percent injected dose per gram, Blood ([2]; 24.00 hr): 0.00 ± 0.00 % ID/g
- percent injected dose per gram, Femur ([2]; 24.00 hr): 0.08 ± 0.02 % ID/g
- percent injected dose per gram, Heart ([2]; 24.00 hr): 0.02 ± 0.01 % ID/g
- percent injected dose per gram, Kidney ([2]; 24.00 hr): 0.35 ± 0.05 % ID/g
- percent injected dose per gram, Liver ([2]; 24.00 hr): 0.10 ± 0.03 % ID/g
- percent injected dose per gram, Liver (second Liver line of Table 7) ([2]; 24.00 hr): 0.17 ± 0.02 % ID/g
- percent injected dose per gram, Lung ([2]; 24.00 hr): 0.23 ± 0.36 % ID/g
- percent injected dose per gram, Spleen ([2]; 24.00 hr): 0.07 ± 0.02 % ID/g
- blood and organ clearance (in words) ([2]; normal athymic mice): rapid blood and liver clearance
